target: T1, Recombinant human TPH1 (MBP tagged) (Homo sapiens, UniProt P17752); test: TPH1 in vitro inhibition assay (kinetic fluorescence); format: biochemical; conditions: read-out: TPH1 Range (TPH1 inhibition IC50)
T1 construct: cloning full length human TPH1 cDNA in to a bacterial pMAL-c5E expression vector; made in house; host or cells: E. coli BL21 (DE3)
T1 sequence (P17752 1-444): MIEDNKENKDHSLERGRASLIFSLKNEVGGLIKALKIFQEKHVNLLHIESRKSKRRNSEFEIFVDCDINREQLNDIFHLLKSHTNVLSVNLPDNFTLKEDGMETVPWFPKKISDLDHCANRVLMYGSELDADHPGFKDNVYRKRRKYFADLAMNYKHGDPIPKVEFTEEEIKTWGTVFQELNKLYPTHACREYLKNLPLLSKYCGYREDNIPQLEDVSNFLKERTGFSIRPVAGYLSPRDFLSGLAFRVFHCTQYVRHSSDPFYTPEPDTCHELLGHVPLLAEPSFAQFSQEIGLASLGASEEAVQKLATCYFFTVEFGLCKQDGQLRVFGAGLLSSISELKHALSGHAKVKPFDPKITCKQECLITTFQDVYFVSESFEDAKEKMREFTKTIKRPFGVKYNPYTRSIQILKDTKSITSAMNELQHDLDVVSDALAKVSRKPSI
Summary of the method: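 Final mix: 15 nM MBP-TPH1, 30 μM Trp, 36 μM 6-methyltetrahydropterin, 25 μM ferrous ammonium sulfate, 50 mM MES pH 7.1, 1% DMSO, room temperature.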

Row | Compound | IC50
1 | Cc1ccn(-c2cc(CN(C)C)ccc2[C@@H](Oc2cc(N3CCC4(CC3)CN[C@H](C(=O)O)C4)nc(N)n2)C(F)(F)F)n1 [Example 26, (S)-8-(2-amino-6-((R)-1-(4-((dimethylamino)methyl)-2-(3-methyl-H-pyrazol-1-yl)phenyl)-2,2,2-trifluoroethoxy)pyrimidin-4-yl)-2,8-diazaspiro[4.5]decane-3-carboxylic acid] | 3000 to 10000 nM
2 | Cc1ccn(-c2cc(Br)ccc2[C@@H](Oc2cc(N3CCC4(CC3)CN[C@H](C(=O)O)C4)nc(C)n2)C(F)(F)F)n1 [Example 27, (S)-8-(6-((R)-1-(4-Bromo-2-(3-methyl-1H-pyrazol-1-yl)phenyl)-2,2,2-trifluoroethoxy)-2-methylpyrimidin-4-yl)-2,8-diazaspiro[4.5]decane-3-carboxylic acid] | 50 to 300 nM
3 | COc1cc(-c2ccc([C@@H](Oc3cc(N4CCC5(CC4)CN[C@H](C(=O)O)C5)nc(C)n3)C(F)(F)F)c(-n3ccc(C)n3)c2)ccn1 [Example 29a, (S)-8-(2-methyl-6-((R)-2,2,2-trifluoro-1-(4-(2-methoxypyridin-4-yl)-2-(3-methyl-1H-pyrazol-1-yl)phenyl)ethoxy)pyrimidin-4-yl)-2,8-diazaspiro[4.5]decane-3-carboxylic acid] | < 50 nM
4 | Cc1ccn(-c2cc(-c3ccc(S(C)(=O)=O)cc3)ccc2[C@@H](Oc2cc(N3CCC4(CC3)CN[C@H](C(=O)O)C4)nc(C)n2)C(F)(F)F)n1 [Example 29b, (S)-8-(2-methyl-6-((R)-2,2,2-trifluoro-1-(3-(3-methyl-1H-pyrazol-1-yl)-4′-(methylsulfonyl)-[1,1′-biphenyl]-4-yl)ethoxy)pyrimidin-4-yl)-2,8-diazaspiro[4.5]decane-3-carboxylic acid] | < 50 nM
5 | Cc1ccn(-c2cc(-c3ccc(F)c(F)c3)ccc2[C@@H](Oc2cc(N3CCC4(CC3)CN[C@H](C(=O)O)C4)nc(C)n2)C(F)(F)F)n1 [Example 29c, (S)-8-(6-((R)-1-(3′,4′-difluoro-3-(3-methyl-1H-pyrazol-1-yl)-[1,1′-biphenyl]-4-yl)-2,2,2-trifluoroethoxy)-2-methylpyrimidin-4-yl)-2,8-diazaspiro[4.5]decane-3-carboxylic acid] | 50 to 300 nM
6 | Cc1ccn(-c2cc(-c3ccc(C)c(C)c3)ccc2[C@@H](Oc2cc(N3CCC4(CC3)CN[C@H](C(=O)O)C4)nc(C)n2)C(F)(F)F)n1 [Example 29d, (S)-8-(6-((R)-1-(3′,4′-dimethyl-3-(3-methyl-1H-pyrazol-1-yl)-[1,1′-biphenyl]-4-yl)-2,2,2-trifluoroethoxy)-2-methylpyrimidin-4-yl)-2,8-diazaspiro[4.5]decane-3-carboxylic acid] | < 50 nM
7 | CCOC(=O)c1cccc(-c2ccc([C@@H](Oc3cc(N4CCC5(CC4)CN[C@H](C(=O)O)C5)nc(C)n3)C(F)(F)F)c(-n3ccc(C)n3)c2)c1 [Example 29e, (S)-8-(6-((R)-1-(3′-(ethoxycarbonyl)-3-(3-methyl-1H-pyrazol-1-yl)-[1,1′-biphenyl]-4-yl)-2,2,2-trifluoroethoxy)-2-methylpyrimidin-4-yl)-2,8-diazaspiro[4.5]decane-3-carboxylic acid] | 50 to 300 nM
8 | COc1ccc(-c2ccc([C@@H](Oc3cc(N4CCC5(CC4)CN[C@H](C(=O)O)C5)nc(C)n3)C(F)(F)F)c(-n3ccc(C)n3)c2)cn1 [Example 29f, (S)-8-(2-methyl-6-((R)-2,2,2-trifluoro-1-(4-(6-methoxypyridin-3-yl)-2-(3-methyl-1H-pyrazol-1-yl)phenyl)ethoxy)pyrimidin-4-yl)-2,8-diazaspiro[4.5]decane-3-carboxylic acid] | < 50 nM
9 | COc1ncc(-c2ccc([C@@H](Oc3cc(N4CCC5(CC4)CN[C@H](C(=O)O)C5)nc(C)n3)C(F)(F)F)c(-n3ccc(C)n3)c2)cn1 [Example 29g, (S)-8-(2-methyl-6-((R)-2,2,2-trifluoro-1-(4-(2-methoxypyrimidin-5-yl)-2-(3-methyl-1H-pyrazol-1-yl)phenyl)ethoxy)pyrimidin-4-yl)-2,8-diazaspiro[4.5]decane-3-carboxylic acid] | < 50 nM
10 | COc1ccc(-c2ccc([C@@H](Oc3cc(N4CCC5(CC4)CN[C@H](C(=O)O)C5)nc(C)n3)C(F)(F)F)c(-n3ccc(C)n3)c2)c(OC)c1 [Example 29h, (S)-8-(6-((R)-1-(2′,4′-dimethoxy-3-(3-methyl-1H-pyrazol-1-yl)-[1,1′-biphenyl]-4-yl)-2,2,2-trifluoroethoxy)-2-methylpyrimidin-4-yl)-2,8-diazaspiro[4.5]decane-3-carboxylic acid] | < 50 nM
11 | CCOC(=O)c1ccc(-c2ccc([C@@H](Oc3cc(N4CCC5(CC4)CN[C@H](C(=O)O)C5)nc(C)n3)C(F)(F)F)c(-n3ccc(C)n3)c2)cc1 [Example 29i, (S)-8-(6-((R)-1-(4′-(ethoxycarbonyl)-3-(3-methyl-1H-pyrazol-1-yl)-[1,1′-biphenyl]-4-yl)-2,2,2-trifluoroethoxy)-2-methylpyrimidin-4-yl)-2,8-diazaspiro[4.5]decane-3-carboxylic acid] | < 50 nM
12 | Cc1ccn(-c2cc(-c3ccc(C(=O)N(C)C)cc3)ccc2[C@@H](Oc2cc(N3CCC4(CC3)CN[C@H](C(=O)O)C4)nc(C)n2)C(F)(F)F)n1 [Example 29j, (S)-8-(6-((R)-1-(4′-(dimethylcarbamoyl)-3-(3-methyl-1H-pyrazol-1-yl)-[1,1′-biphenyl]-4-yl)-2,2,2-trifluoroethoxy)-2-methylpyrimidin-4-yl)-2,8-diazaspiro[4.5]decane-3-carboxylic acid] | < 50 nM
13 | COc1ncccc1-c1ccc([C@@H](Oc2cc(N3CCC4(CC3)CN[C@H](C(=O)O)C4)nc(C)n2)C(F)(F)F)c(-n2ccc(C)n2)c1 [Example 29k, (S)-8-(2-methyl-6-((R)-2,2,2-trifluoro-1-(4-(2-methoxypyridin-3-yl)-2-(3-methyl-1H-pyrazol-1-yl)phenyl)ethoxy)pyrimidin-4-yl)-2,8-diazaspiro[4.5]decane-3-carboxylic acid] | 50 to 300 nM
14 | COc1ccc(-c2ccc([C@@H](Oc3cc(N4CCC5(CC4)CN[C@H](C(=O)O)C5)nc(C)n3)C(F)(F)F)c(-n3ccc(C)n3)c2)cc1F [Example 29l, (S)-8-(2-methyl-6-((R)-2,2,2-trifluoro-1-(3′-fluoro-4′-methoxy-3-(3-methyl-1H-pyrazol-1-yl)-[1,1′-biphenyl]-4-yl)ethoxy)pyrimidin-4-yl)-2,8-diazaspiro[4.5]decane-3-carboxylic acid] | < 50 nM
15 | Cc1ccn(-c2cc(-c3cccc(C(=O)N(C)C)c3)ccc2[C@@H](Oc2cc(N3CCC4(CC3)CN[C@H](C(=O)O)C4)nc(C)n2)C(F)(F)F)n1 [Example 29m, (S)-8-(6-((R)-1-(3′-(dimethylcarbamoyl)-3-(3-methyl-1H-pyrazol-1-yl)-[1,1′-biphenyl]-4-yl)-2,2,2-trifluoroethoxy)-2-methylpyrimidin-4-yl)-2,8-diazaspiro[4.5]decane-3-carboxylic acid] | 50 to 300 nM
16 | Cc1cc(C)c(-c2ccc([C@@H](Oc3cc(N4CCC5(CC4)CN[C@H](C(=O)O)C5)nc(C)n3)C(F)(F)F)c(-n3ccc(C)n3)c2)c(C)c1 [Example 29n, (S)-8-(2-methyl-6-((R)-2,2,2-trifluoro-1-(2′,4′,6′-trimethyl-3-(3-methyl-1H-pyrazol-1-yl)-[1,1′-biphenyl]-4-yl)ethoxy)pyrimidin-4-yl)-2,8-diazaspiro[4.5]decane-3-carboxylic acid] | 50 to 300 nM
17 | Cc1ccn(-c2cc(-c3ccc(OC(C)C)cc3)ccc2[C@@H](Oc2cc(N3CCC4(CC3)CN[C@H](C(=O)O)C4)nc(C)n2)C(F)(F)F)n1 [Example 29o, (S)-8-(2-methyl-6-((R)-2,2,2-trifluoro-1-(4′-isopropoxy-3-(3-methyl-1H-pyrazol-1-yl)-[1,1′-biphenyl]-4-yl)ethoxy)pyrimidin-4-yl)-2,8-diazaspiro[4.5]decane-3-carboxylic acid] | < 50 nM
18 | COc1ccccc1-c1ccc([C@@H](Oc2cc(N3CCC4(CC3)CN[C@H](C(=O)O)C4)nc(C)n2)C(F)(F)F)c(-n2ccc(C)n2)c1 [Example 29p, (S)-8-(2-methyl-6-((R)-2,2,2-trifluoro-1-(2′-methoxy-3-(3-methyl-1H-pyrazol-1-yl)-[1,1′-biphenyl]-4-yl)ethoxy)pyrimidin-4-yl)-2,8-diazaspiro[4.5]decane-3-carboxylic acid] | < 50 nM
19 | COC(=O)c1ccc(-c2ccc([C@@H](Oc3cc(N4CCC5(CC4)CN[C@H](C(=O)O)C5)nc(C)n3)C(F)(F)F)c(-n3ccc(C)n3)c2)cc1OC [Example 29q, (S)-8-(2-methyl-6-((R)-2,2,2-trifluoro-1-(3′-methoxy-4′-(methoxycarbonyl)-3-(3-methyl-1H-pyrazol-1-yl)-[1,1′-biphenyl]-4-yl)ethoxy)pyrimidin-4-yl)-2,8-diazaspiro[4.5]decane-3-carboxylic acid] | < 50 nM
20 | Cc1ccn(-c2cc(-c3ccc(C(C)(C)C)cc3)ccc2[C@@H](Oc2cc(N3CCC4(CC3)CN[C@H](C(=O)O)C4)nc(C)n2)C(F)(F)F)n1 [Example 29r, (S)-8-(6-((R)-1-(4′-(tert-butyl)-3-(3-methyl-1H-pyrazol-1-yl)-[1,1′-biphenyl]-4-yl)-2,2,2-trifluoroethoxy)-2-methylpyrimidin-4-yl)-2,8-diazaspiro[4.5]decane-3-carboxylic acid] | < 50 nM

From patent US11759462B2, “Spirocyclic compounds as tryptophan hydroxylase inhibitors” (priority 2013, dated 2023)
